In ChEMBL document CHEMBL3621041, “Optimization of a Novel Binding Motif to (E)-3-(3,5-Difluoro-4-((1R,3R)-2-(2-fluoro-2-methylpropyl)-3-methyl-2,3,4,9-tetrahydro-1H-pyrido[3,4-b]indol-1-yl)phenyl)acrylic Acid (AZD9496), a Potent and Orally Bioavailable Selective Estrogen Receptor Downregulator and Antagonist” (J Med Chem, 2015):
≈ marks a conversion by molar mass, not a printed value. Calls of active or inactive are those of the source. The rule behind the calls is not given here.

Tests used:
[1] = Clearance in Alderley Park beagle dog at 2.5 umol/kg, iv and 5 umol/kg, po; assay type: ADME, organism-based, Canis lupus familiaris; settings: in vivo
[2] = Intrinsic clearance in rat cryopreserved hepatocytes assessed per 10^6 cells; assay type: ADME, cell-based, Hepatocyte; settings: read-out: CLH
[3] = Volume of distribution at steady state in Han Wistar rat at 2.2 umol/kg, iv and 4.5 umol/kg, po; assay type: ADME, organism-based; settings: in vivo, read-out: Vdss
MCF7 [4] = test: cells; settings: Homo sapiens, MCF7, read-out: pIC50 (converted)
Description: Antiproliferative activity against human MCF7 cells

MCF7 [5] = test: Antitumor activity against human MCF7 cells xenografted in mouse assessed as tumor growth inhibition administered orally daily once; assay type: functional
[6] = Clearance in Han Wistar rat at 2.2 umol/kg, iv and […] umol/kg, po; assay type: ADME, organism-based; settings: in vivo
[7] = Volume of distribution at steady state in SCID mouse at 2.3 umol/kg, iv and 5.6 umol/kg, po; assay type: ADME, organism-based; settings: in vivo, read-out: Vdss
Androgen receptor = molecular target: T1, Androgen receptor (Homo sapiens, UniProt P10275); test: Binding affinity to androgen receptor (unknown origin); settings: read-out: IC50
T1 sequence (P10275 whole entry): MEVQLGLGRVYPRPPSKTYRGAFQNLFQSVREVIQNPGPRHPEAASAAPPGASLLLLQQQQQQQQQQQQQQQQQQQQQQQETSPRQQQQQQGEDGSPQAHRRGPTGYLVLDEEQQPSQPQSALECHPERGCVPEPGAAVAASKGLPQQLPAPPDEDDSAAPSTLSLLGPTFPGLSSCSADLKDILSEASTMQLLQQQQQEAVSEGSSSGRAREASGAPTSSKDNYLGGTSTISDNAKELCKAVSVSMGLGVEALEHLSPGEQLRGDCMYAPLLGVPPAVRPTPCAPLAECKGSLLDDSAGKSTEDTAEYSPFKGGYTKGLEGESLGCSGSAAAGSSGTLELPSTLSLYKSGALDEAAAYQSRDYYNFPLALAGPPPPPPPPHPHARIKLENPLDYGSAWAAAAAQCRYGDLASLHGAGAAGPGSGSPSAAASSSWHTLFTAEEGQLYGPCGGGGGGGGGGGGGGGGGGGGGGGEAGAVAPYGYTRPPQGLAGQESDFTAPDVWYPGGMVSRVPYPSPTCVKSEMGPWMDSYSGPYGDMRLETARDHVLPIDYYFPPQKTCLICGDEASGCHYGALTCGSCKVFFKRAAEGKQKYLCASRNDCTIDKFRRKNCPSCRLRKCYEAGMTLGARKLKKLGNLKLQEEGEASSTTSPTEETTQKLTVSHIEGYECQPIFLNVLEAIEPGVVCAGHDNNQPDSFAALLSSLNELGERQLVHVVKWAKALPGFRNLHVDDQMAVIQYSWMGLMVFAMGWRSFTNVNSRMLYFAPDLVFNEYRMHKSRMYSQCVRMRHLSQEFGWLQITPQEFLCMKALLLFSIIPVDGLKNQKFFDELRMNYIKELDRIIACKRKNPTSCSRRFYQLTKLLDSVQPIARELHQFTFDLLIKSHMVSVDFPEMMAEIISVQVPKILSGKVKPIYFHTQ

[8] = Oral bioavailability in Han Wistar rat at 4.5 umol/kg; assay type: ADME, organism-based; settings: in vivo
[9] = Intrinsic clearance in human cryopreserved hepatocytes assessed per 10^6 cells; assay type: ADME, cell-based, Hepatocyte; settings: read-out: CLH
Glucocorticoid receptor = molecular target: T2, Glucocorticoid receptor (Homo sapiens, UniProt P04150); test: Binding affinity to glucocorticoid receptor (unknown origin); settings: read-out: IC50
T2 sequence (P04150 whole entry): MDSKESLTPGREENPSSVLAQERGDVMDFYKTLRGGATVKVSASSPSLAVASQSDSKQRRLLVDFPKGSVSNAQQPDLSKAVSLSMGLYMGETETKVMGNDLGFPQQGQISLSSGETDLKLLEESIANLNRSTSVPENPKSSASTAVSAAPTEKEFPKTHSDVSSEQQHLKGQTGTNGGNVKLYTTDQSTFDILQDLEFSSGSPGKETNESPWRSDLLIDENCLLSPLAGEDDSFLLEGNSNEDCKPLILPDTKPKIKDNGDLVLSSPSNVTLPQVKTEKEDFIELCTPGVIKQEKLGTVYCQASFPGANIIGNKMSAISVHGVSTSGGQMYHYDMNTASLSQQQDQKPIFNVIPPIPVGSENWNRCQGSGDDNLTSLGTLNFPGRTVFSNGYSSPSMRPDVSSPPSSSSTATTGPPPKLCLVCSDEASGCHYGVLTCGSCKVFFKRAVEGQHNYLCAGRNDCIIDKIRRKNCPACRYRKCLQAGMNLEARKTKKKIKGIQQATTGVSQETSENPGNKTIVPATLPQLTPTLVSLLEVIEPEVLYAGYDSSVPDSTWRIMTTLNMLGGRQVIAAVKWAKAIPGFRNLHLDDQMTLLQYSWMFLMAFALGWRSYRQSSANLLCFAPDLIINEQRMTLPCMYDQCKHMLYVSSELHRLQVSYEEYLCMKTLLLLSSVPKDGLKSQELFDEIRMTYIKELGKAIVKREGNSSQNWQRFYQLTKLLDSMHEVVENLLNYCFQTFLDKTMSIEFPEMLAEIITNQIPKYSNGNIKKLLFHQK

[10] = Clearance in SCID mouse at 2.3 umol/kg, iv and 5.6 umol/kg, po; assay type: ADME, organism-based; settings: in vivo
[11] = Fraction unbound in human 10% plasma by equilibrium dialysis; assay type: ADME, cell-free
[12] = Thermodynamic solubility of the compound in 0.1 M phosphate buffer at pH 7.4 after 24 hrs; assay type: physicochemical; settings: read-out: Therm_solubility
[13] = Fraction unbound in Han Wistar rat 10% plasma by equilibrium dialysis; assay type: ADME, cell-free
[14] = Oral bioavailability in SCID mouse at 5.6 umol/kg; assay type: ADME, organism-based; settings: in vivo
[15] = Lipophilicity, log D of the compound at pH 7.4; assay type: physicochemical; settings: buffer
[16] = Volume of distribution at steady state in Alderley Park beagle dog at 2.5 umol/kg, iv and 5 umol/kg, po; assay type: ADME, organism-based, Canis lupus familiaris; settings: in vivo, read-out: Vdss
[17] = Oral bioavailability in Alderley Park beagle dog at 5 umol/kg; assay type: ADME, organism-based, Canis lupus familiaris; settings: in vivo
MCF7 [18] = test: Antitumor activity against human MCF7 cells xenografted in mouse assessed as tumor regression at 5 mg/kg, po qd; assay type: functional, organism-based
[19] = Volume of distribution at steady state in Han Wistar rat at 5 umol/kg, iv and 13 umol/kg, po; assay type: ADME, organism-based; settings: in vivo, read-out: Vdss
[20] = Clearance in Han Wistar rat at 5 umol/kg, iv and 13 umol/kg, po; assay type: ADME, organism-based; settings: in vivo
[21] = Oral bioavailability in Han Wistar rat at 13 umol/kg; assay type: ADME, organism-based; settings: in vivo
[22] = Volume of distribution at steady state in CD1 mouse at 5 umol/kg, iv and 13 umol/kg, po; assay type: ADME, organism-based; settings: in vivo, read-out: Vdss
Progesterone receptor = molecular target: T3, Progesterone receptor (Homo sapiens, UniProt P06401); test: Agonist activity at progesterone receptor in human MCF7 cells; assay type: cell-based
T3 sequence (P06401 whole entry): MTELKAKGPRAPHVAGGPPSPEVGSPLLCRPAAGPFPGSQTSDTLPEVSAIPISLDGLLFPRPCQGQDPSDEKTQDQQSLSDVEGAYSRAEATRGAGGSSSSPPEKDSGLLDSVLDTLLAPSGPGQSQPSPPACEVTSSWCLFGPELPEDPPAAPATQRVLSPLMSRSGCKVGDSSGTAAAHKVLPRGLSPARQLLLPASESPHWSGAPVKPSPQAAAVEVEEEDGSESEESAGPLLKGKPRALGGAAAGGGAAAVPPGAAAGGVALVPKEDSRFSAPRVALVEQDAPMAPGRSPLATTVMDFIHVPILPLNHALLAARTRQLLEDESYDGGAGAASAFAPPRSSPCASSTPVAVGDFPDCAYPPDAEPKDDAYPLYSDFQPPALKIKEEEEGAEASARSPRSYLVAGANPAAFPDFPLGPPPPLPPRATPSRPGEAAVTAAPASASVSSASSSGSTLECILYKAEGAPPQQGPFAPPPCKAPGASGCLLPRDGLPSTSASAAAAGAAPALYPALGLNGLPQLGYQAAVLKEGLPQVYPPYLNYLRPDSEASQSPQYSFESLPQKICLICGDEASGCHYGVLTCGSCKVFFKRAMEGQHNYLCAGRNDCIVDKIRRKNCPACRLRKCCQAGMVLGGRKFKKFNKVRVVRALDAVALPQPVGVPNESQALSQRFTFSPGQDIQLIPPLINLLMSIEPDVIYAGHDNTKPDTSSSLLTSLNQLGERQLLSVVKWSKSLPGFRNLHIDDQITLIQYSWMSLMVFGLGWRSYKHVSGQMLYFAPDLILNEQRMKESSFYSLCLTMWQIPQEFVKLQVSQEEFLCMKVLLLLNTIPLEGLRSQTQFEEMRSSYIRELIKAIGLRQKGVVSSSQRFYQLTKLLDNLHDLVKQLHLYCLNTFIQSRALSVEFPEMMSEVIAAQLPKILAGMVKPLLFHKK

[23] = Oral bioavailability in CD1 mouse at 13 umol/kg; assay type: ADME, organism-based; settings: in vivo
[24] = Clearance in CD1 mouse at 5 umol/kg, iv and 13 umol/kg, po; assay type: ADME, organism-based; settings: in vivo
Estrogen receptor [25] = molecular target: T4, Estrogen receptor (Homo sapiens, UniProt P03372)
T4 sequence (P03372 whole entry): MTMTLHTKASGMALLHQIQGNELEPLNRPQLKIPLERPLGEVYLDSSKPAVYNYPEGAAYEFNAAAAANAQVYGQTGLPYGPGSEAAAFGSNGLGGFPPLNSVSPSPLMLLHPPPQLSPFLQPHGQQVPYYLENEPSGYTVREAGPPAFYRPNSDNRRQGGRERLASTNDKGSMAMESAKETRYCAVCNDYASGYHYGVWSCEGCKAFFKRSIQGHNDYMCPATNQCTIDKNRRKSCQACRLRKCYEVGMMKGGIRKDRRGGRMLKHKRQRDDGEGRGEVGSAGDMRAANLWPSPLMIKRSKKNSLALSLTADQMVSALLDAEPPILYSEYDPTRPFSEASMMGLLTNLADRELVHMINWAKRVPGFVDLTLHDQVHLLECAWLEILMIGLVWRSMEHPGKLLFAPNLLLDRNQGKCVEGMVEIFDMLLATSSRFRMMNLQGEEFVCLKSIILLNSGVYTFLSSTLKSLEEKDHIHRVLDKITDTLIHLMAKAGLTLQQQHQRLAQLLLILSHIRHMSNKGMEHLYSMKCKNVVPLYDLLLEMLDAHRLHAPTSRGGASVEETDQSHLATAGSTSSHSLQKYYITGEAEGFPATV
Description: Antagonist activity at ERalpha receptor in human MCF7 cells

Estrogen receptor [26] = molecular target: T4, Estrogen receptor; remark: listed apart in the source
Description: Binding affinity to ERalpha receptor (unknown origin)

Compound | clearance [1] | hepatocyte CLint [2] | IC50 (MCF7 [4]) | hepatocyte CLint [9] | fraction unbound [11] | solubility thermodynamic at 24 h [12] | fraction unbound [13] | logD [15] | Vd [16] | bioavailability [17] | also measured
C[C@@H]1Cc2c([nH]c3ccccc23)[C@@H](c2c(F)cc(/C=C/C(=O)O)cc2F)N1CC(C)(C)F [AZD-9496] | 0.28 mL/min/kg | 4.2 µL/min/1e6 cells | 0.0398 nM | 32 µL/min/1e6 cells | 0.0026 | 110 µM (≈ 48.7 µg/mL) | 0.0037 | 2.8 | 2.2 L/kg | 79% | Vd [3]: 0.43 L/kg; growth inhibition (GI) (MCF7 [5]): Dose-dependent effect; clearance [6]: 1 mL/min/kg; Vd [7]: 2.2 L/kg; IC50 (Androgen receptor): 30000 nM; bioavailability [8]: 63%; IC50 (Glucocorticoid receptor): 9200 nM; clearance [10]: 43 mL/min/kg; bioavailability [14]: 128%; Activity (MCF7 [18]): Active
CC(C)CN1[C@H](c2ccc(/C=C/C(=O)O)cc2)c2[nH]c3ccccc3c2C[C@H]1C | 0.96 mL/min/kg | 18 µL/min/1e6 cells | 0.776 nM | 40 µL/min/1e6 cells | 0.0051 | > 1000 µM | 0.0069 | 2.6 | 0.3 L/kg | 111% | Vd [19]: 1.1 L/kg; clearance [20]: 6.2 mL/min/kg; bioavailability [21]: 80%; Vd [22]: 3.7 L/kg; IC50 (Progesterone receptor): > 100000 nM; bioavailability [23]: 86%; clearance [24]: 21 mL/min/kg; IC50 (Estrogen receptor [25]): 2.09 nM; IC50 (Estrogen receptor [26]): 6.46 nM
